Results published in US20120142685A1, “ORGANIC COMPOUNDS” (priority 2007, published 2012).

biological target: T1, protein kinase D1 (PKD1) (Homo sapiens, UniProt Q15139); assay: PKD1 TR-FRET (LANCE) kinase assay; format: biochemical; conditions: full length wild-type enzyme, 20 μM ATP; read-out: Inhibitory Activity PKD1
T1 construct: This assay is performed with full length wild-type enzyme that is expressed and purified from Sf9 insect cells; made in house; host or cells: Sf9 insect cells
T1 sequence (Q15139 1-912): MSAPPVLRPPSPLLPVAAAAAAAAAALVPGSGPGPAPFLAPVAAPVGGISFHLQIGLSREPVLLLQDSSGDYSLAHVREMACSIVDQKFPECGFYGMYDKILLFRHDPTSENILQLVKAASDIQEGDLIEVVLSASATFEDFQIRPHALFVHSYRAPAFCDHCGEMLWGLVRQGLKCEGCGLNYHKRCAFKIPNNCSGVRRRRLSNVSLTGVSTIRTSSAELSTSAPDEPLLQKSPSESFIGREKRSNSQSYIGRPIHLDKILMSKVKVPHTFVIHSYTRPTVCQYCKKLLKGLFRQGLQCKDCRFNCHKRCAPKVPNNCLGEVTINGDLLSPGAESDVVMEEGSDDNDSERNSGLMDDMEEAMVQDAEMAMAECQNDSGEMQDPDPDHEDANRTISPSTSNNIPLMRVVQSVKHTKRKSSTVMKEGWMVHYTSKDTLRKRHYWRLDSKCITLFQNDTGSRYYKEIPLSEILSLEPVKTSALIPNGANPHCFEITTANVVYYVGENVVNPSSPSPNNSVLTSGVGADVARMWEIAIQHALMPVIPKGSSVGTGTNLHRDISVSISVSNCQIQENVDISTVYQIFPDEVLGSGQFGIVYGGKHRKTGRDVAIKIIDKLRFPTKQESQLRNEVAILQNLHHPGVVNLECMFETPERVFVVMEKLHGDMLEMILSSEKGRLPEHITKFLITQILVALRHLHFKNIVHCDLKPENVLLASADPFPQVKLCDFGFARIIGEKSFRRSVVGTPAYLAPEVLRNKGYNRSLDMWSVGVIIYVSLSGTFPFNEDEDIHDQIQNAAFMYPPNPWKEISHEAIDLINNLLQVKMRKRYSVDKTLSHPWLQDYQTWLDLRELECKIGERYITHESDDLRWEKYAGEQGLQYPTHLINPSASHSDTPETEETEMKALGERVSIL
Text: The assay to measure protein kinase D1 (PKD1) activity is a time-resolved fluorescence resonance transfer (TR-FRET) assay using PerkinElmer's LANCE™ technology. In this case, a biotinylated syntide-2 peptide is used as the substrate in this reaction. Phosphorylation of the syntide-2 substrate is detected by a specific antibody that recognizes the phosphorylated peptide. A second fluorophore, APC, is conjugated to streptavidin that binds the biotinylated syntide-2 peptide. For detection, the europium fluorophore can be excited by 340 nM light which then emits at 615 nM. Therefore, when the europium labeled secondary antibody binds on the phosphorylated peptide, it is brought into close contact with the APC and excites this fluorophore. The APC emission is at 665 nm and the 665 nM:615 nM ratio is a readout of PKD1 activity.
This assay is performed with full length wild-type enzyme that is expressed and purified from Sf9 insect cells. The reaction buffer consists of 35 mM Tris-HCl pH7.5, 5 mM MgCl2, 0.02% Tween-20, 20 μM ATP, 1 mM DTT and 0.2 μg/mL PKD1 enzyme. The enzyme reaction is initiated by the addition of 2 μM syntide-2 peptide substrate and the reaction carried out for 50 minutes at room temperature. The reaction is stopped by a stop/detection buffer consisting of 50 mM EDTA, 0.18 mg/mL rabbit polyclonal anti-phospho syntide-2 antibody, 0.5 nM europium labeled anti-rabbit IgG and 10 nM streptavidin conjugated APC. After a one hour incubation with the stop/detection buffer, the reaction is read on an Envision 2100 Reader using a LANCE™ Eu/APC dual protocol. As described above, a 665 nM:615 nM ratio is determined to measure substrate phosphorylation and enzyme activity. Compounds are typically tested in an 11 point dose response fashion in triplicate for each concentration used. IC50 values are calculated using an Activity Base (IDBS) software program.

IC50 | Compound
83 nM | NC(=O)C1CCN(c2nc(-c3ccnc(NC4CCCCC4)c3)cc3cnccc23)CC1 [Example 10, 1-[3-(2-Cyclohexylaminopyridin-4-yl)-[2,6]naphthyridin-1-yl]piperidine-4-carboxylic acid amide]
186 nM | CC(=O)N1CCN(c2nc(-c3ccnc(NC4CCCCC4)c3)cc3cnccc23)CC1 [Example 11, 1-{4-[3-(2-Cyclohexylaminopyridin-4-yl)-[2,6]naphthyridin-1-yl]piperazin-1-yl}ethanone]
207 nM | CN(C)CC1CCN(c2nc(-c3ccnc(NC4CCCCC4)c3)cc3cnccc23)CC1 [Example 12, Cyclohexyl-{4-[1-(4-dimethylaminomethylpiperidin-1-yl)-[2,6]naphthyridin-3-yl]pyridin-2-yl}amine]
1 nM | c1cc2c(NC3CCNC3)nc(-c3ccnc(NC4CCCCC4)c3)cc2cn1 (stereo not drawn) [Example 14, [3-(2-Cyclohexylaminopyridin-4-yl)-[2,6]naphthyridin-1-yl]pyrrolidin-3-ylamine]
2 nM | O=C(NCCO)C1CCN(c2nc(-c3ccnc(NC4CCOCC4)c3)cc3cnccc23)CC1 [Example 16, 1-{3-[2-(Tetrahydropyran-4-ylamino)pyridin-4-yl]-[2,6]naphthyridin-1-yl}piperidine-4-carboxylic acid (2-hydroxyethyl)amide]
0.4 nM | Cn1ccc(Nc2cc(-c3cc4cnccc4c(N4CCC(C(N)=O)CC4)n3)ccn2)n1 [Example 19, 1-{3-[2-(1-Methyl-1H-pyrazol-3-ylamino)pyridin-4-yl]-[2,6]naphthyridin-1-yl}piperidine-4-carboxylic acid amide]
17 nM | Cn1ccc(Nc2cc(-c3cc4cnccc4c(N4CCC5(CCNC5=O)CC4)n3)ccn2)n1 [Example 20, 8-{3-[2-(1-Methyl-1H-pyrazol-3-ylamino)pyridin-4-yl]-[2,6]naphthyridin-1-yl}-2,8-diaza-spiro[4.5]decan-1-one]
14 nM | COCCNc1cc(-c2cc3cnccc3c(N3CCNCC3)n2)ccn1 [Example 21, (2-Methoxyethyl)-[4-(1-piperazin-1-yl-[2,6]naphthyridin-3-yl)-pyridin-2-yl]amine]

Further lines, the compound ahead of its results:

Compound | IC50
CNc1cc(-c2cc3cnccc3c(NCCCO)n2)ccn1 [Example 1] | 377 nM
CNc1cc(-c2cc3cnccc3c(NC)n2)ccn1 [Example 2, 1-Methylamino-3-(2-methylaminopyridin-4-yl)-[2,6]-naphthyridine] | 833 nM
c1cc2c(N3CCNCC3)nc(-c3ccnc(NC4CCCCC4)c3)cc2cn1 [Example 3, Cyclohexyl-[4-(1-piperazin-1-yl-[2,6]naphthyridin-3-yl)pyridin-2-yl]amine] | 0.6 nM
c1ccc(Nc2cc(-c3cc4cnccc4c(N4CCNCC4)n3)ccn2)cc1 [Example 4, Phenyl-[4-(1-piperazin-1-yl-[2,6]naphthyridin-3-yl)pyridin-2-yl]amine] | 11 nM
OCCNc1nc(-c2ccnc(NC3CCCCC3)c2)cc2cnccc12 [Example 5, 2-[3-(2-Cyclohexylaminopyridin-4-yl)-[2,6]naphthyridin-1-ylamino]ethanol] | 382 nM
CC(C)Nc1cc(-c2cc3cnccc3c(NCCO)n2)ccn1 [Example 6, 2-[3-(2-Isopropylaminopyridin-4-yl)-[2,6]naphthyridin-1-ylamino]ethanol] | 156 nM
COc1cccc(Nc2cc(-c3cc4cnccc4c(NCCO)n3)ccn2)c1 [Example 7] | 55 nM
CN(C)CCNc1nc(-c2ccnc(NC3CCCCC3)c2)cc2cnccc12 [Example 8, N-[3-(2-Cyclohexylaminopyridin-4-yl)-[2,6]naphthyridin-1-yl]-N′,N′-dimethylethane-1,2-diamine] | 55 nM
CN(C)CCNc1nc(-c2ccnc(Nc3ccccc3)c2)cc2cnccc12 [Example 9, N,N-Dimethyl-N′-[3-(2-phenylaminopyridin-4-yl)-[2,6]naphthyridin-1-yl]-ethane-1,2-diamine] | 41 nM
CN1CCN(c2nc(-c3ccnc(NC4CCCCC4)c3)cc3cnccc23)CC1 [Example 13, Cyclohexyl-{4-[1-(4-methylpiperazin-1-yl)-[2,6]naphthyridin-3-yl]pyridin-2-yl}amine] | 2 nM
c1cc2c(NC3CCCNC3)nc(-c3ccnc(NC4CCCCC4)c3)cc2cn1 (stereo not drawn) [Example 15, [3-(2-Cyclohexylaminopyridin-4-yl)-[2,6]naphthyridin-1-yl]piperidin-3-ylamine] | 14 nM
O=C(NC1CC1)C1CCN(c2nc(-c3ccnc(NC4CCOCC4)c3)cc3cnccc23)CC1 [Example 17, 1-{3-[2-(Tetrahydropyran-4-ylamino)pyridin-4-yl]-[2,6]naphthyridin-1-yl}piperidine-4-carboxylic acid cyclopropylamide] | 2 nM
CCNC(=O)N1CCN(c2nc(-c3ccnc(Nc4ccn(C)n4)c3)cc3cnccc23)CC1 [Example 18, 4-{3-[2-(1-Methyl-1H-pyrazol-3-ylamino)pyridin-4-yl]-[2,6]naphthyridin-1-yl}piperazine-1-carboxylic acid ethylamide] | 20 nM
